Reference: the NIST ThermoML archive (doi:10.1021/je300134c)
Numbers after ± are expanded uncertainties.

Assay: xn = mol fraction of the nth substance listed
Conditions: 101 kPa, Liquid; for mass density: Vibrating tube method; for speed of sound: Sing-around technique in a fixed-path interferometer

CCCC[n+]1ccn(CC)c1.O=S(=O)([O-])C(F)(F)F + O
Conditions	mass density, 308.15 K [kg/m3]	mass density, 318.15 K [kg/m3]	mass density, 328.15 K [kg/m3]	mass density, 338.15 K [kg/m3]	speed of sound, 318.15 K [m/s]	speed of sound, 328.15 K [m/s]	speed of sound, 338.15 K [m/s]
x1 = 0.04992	1102.81 ± 0.09	1096.1 ± 0.08	1088.96 ± 0.08	1081.43 ± 0.08	1515.2 ± 0.77	1504.9 ± 0.76	1492 ± 0.76
x1 = 0.1001	1149.85 ± 0.11	1142.14 ± 0.11	1134.15 ± 0.11	1125.92 ± 0.1	1475.1 ± 0.79	1458.2 ± 0.78	1439.7 ± 0.77
x1 = 0.1498	1176.7 ± 0.14	1168.57 ± 0.14	1160.26 ± 0.13	1151.76 ± 0.13	1447.5 ± 0.82	1427.4 ± 0.81	1406.4 ± 0.8
x1 = 0.1998	1193.95 ± 0.17	1185.67 ± 0.17	1177.26 ± 0.16	1168.74 ± 0.16	1426.7 ± 0.86	1405 ± 0.85	1382.8 ± 0.84
x1 = 0.3013	1215.04 ± 0.25	1206.74 ± 0.24	1198.39 ± 0.24	1189.99 ± 0.23	1396.3 ± 0.97	1373.8 ± 0.96	1351.2 ± 0.96
x1 = 0.4012	1227.32 ± 0.34	1219.13 ± 0.33	1210.91 ± 0.33	1202.68 ± 0.32	1376.7 ± 1.1	1354.1 ± 1.1	1331.6 ± 1.1
x1 = 0.496	1235.04 ± 0.45	1226.96 ± 0.44	1218.87 ± 0.44	1210.79 ± 0.43	1363.7 ± 1.2	1341.2 ± 1.2	1319 ± 1.2
x1 = 0.6017	1241.24 ± 0.6	1233.26 ± 0.59	1225.3 ± 0.58	1217.37 ± 0.57	1352.5 ± 1.4	1330.3 ± 1.4	1308.4 ± 1.4
x1 = 0.7007	1245.51 ± 0.76	1237.61 ± 0.75	1229.73 ± 0.74	1221.89 ± 0.73	1344.3 ± 1.6	1322.3 ± 1.6	1300.7 ± 1.6
x1 = 0.8551	1250.54 ± 1.1	1242.74 ± 1.1	1234.98 ± 1	1227.27 ± 1	1335.7 ± 1.9	1314 ± 1.9	1292.7 ± 1.9
x1 = 0.9006	1251.76 ± 1.2	1243.97 ± 1.1	1236.23 ± 1.1	1228.53 ± 1.1	1333 ± 1.9	1311.3 ± 1.9	1290.2 ± 1.9
x1 = 1	1254.44 ± 1.4	1246.71 ± 1.4	1239.01 ± 1.4	1231.35 ± 1.3	1328.6 ± 2.1	1307.1 ± 2.1	1286.1 ± 2.1
